Where a name gives a salt, the structure may show the parent alone. Read-outs that look alike come from different tables or passages of the source.
Tests used:
[1] = tested on: TNF-α production by LPS-stimulated splenic monocytes; test: Cytokine assay: LPS-stimulated TNF-α production by splenic monocytes; format: cell-based, mouse; settings: for inhibition of TNF-α production: CGS 21680 alone; for inhibition at 30 µM / inhibition at 100 µM: Mus musculus, Monocyte, 4 h
[2] = tested on: CCL3 production by LPS-stimulated splenic monocytes; test: Cytokine assay: LPS-stimulated CCL3 production by splenic monocytes; format: cell-based, mouse; settings: A2AR intact and deficient monocytes, absence of ADA
[3] = biological target: T1, human A2AR (Homo sapiens, UniProt P29274); test: Cell-based cAMP assay in CHO-hA2AR cells; settings: 10 min
T1 sequence (P29274 whole entry): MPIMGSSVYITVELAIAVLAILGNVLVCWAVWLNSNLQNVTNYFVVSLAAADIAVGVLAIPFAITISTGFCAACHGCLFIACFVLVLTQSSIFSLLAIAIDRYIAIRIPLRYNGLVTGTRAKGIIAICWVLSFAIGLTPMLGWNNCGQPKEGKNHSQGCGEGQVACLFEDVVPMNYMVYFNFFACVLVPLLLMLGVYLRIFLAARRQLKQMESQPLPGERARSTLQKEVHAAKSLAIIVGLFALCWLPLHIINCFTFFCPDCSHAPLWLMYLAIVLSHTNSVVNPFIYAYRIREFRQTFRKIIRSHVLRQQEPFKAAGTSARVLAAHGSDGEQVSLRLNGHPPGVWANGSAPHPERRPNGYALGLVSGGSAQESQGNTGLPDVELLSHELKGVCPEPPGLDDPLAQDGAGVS

[4] = biological target: T1, human A2AR; test: ERK1/2 phosphorylation assay in CHO-hA2AR cells; settings: inosine 1000 μM, AEA061 10 μM, 10 min
[5] = cited from earlier work
[6] = tested on: CCL4 production by LPS-stimulated splenic monocytes; test: Cytokine assay: LPS-stimulated CCL4 production by splenic monocytes; format: cell-based, mouse; settings: absence of ADA, single agents
[7] = biological target: hA2AR (Homo sapiens, UniProt P29274); test: Cell-free membrane-based cAMP assay; format: biochemical; settings: HEK293-hA2AR cytosol-free membrane preparations, ADA 3 U/ml, 30 min, NBMPR 0–300 μM
Chain of hA2AR (P29274 whole entry): as above

With `CCNC(=O)[C@H]1O[C@@H](n2cnc3c(N)nc(NCCc4ccc(CCC(=O)O)cc4)nc32)[C@H](O)[C@@H]1O` [CGS 21680, 4-[2-[[6-Amino-9-(N-ethyl-β-D-ribofuranuronamidosyl)-9H-purin-2-yl]amino]ethyl] benzenepropanoic acid hydrochloride] the “inhibition of TNF-α production” value ([1]; LPS-stimulated A2AR deficient monocytes, absence of ADA) was 6.7% and the “inhibition of TNF-α production” value ([1]; LPS-stimulated A2AR-intact monocytes, absence of ADA) was 39%.

With `OC[C@H]1O[C@@H](n2cnc3c(O)ncnc32)[C@H](O)[C@@H]1O` [inosine] the “inhibition of CCL3 production” value [2] was “closely resembles that of TNF-α”, the cAMP production ([3]; in the presence of ADA 3 U/ml) was “increased cAMP production” and the ERK1/2 phosphorylation [4] was “increased ERK1/2 phosphorylation”. The half-life [5] was 15 h, the “inhibition of TNF-α production as single agent” value ([1]; LPS-stimulated A2AR intact monocytes, absence of ADA) was “dose-dependently inhibited TNF-α production” and the inhibition at 30 µM ([1]; read-out: inhibition of LPS-stimulated TNF-α production, A2AR deficient monocytes, absence of ADA, 30 μM, 4 h) was 5.2 ± 1.3%. It also gave an inhibition at 100 µM ([1]; read-out: inhibition of LPS-stimulated TNF-α production, A2AR deficient monocytes, absence of ADA, 100 μM, 4 h) of 16.3 ± 0.7%, an inhibition at 30 µM ([1]; read-out: inhibition of LPS-stimulated TNF-α production, A2AR deficient monocytes, presence of ADA 3 U/ml, 30 μM, 4 h) of 5.2 ± 2.2% and an inhibition at 100 µM ([1]; read-out: inhibition of LPS-stimulated TNF-α production, A2AR deficient monocytes, presence of ADA 3 U/ml, 100 μM, 4 h) of 12.4 ± 1.2%. The inhibition at 30 µM ([1]; read-out: inhibition of LPS-stimulated TNF-α production, A2AR intact monocytes, absence of ADA, 30 μM, 4 h) was 18.6 ± 3.7%, the inhibition at 100 µM ([1]; read-out: inhibition of LPS-stimulated TNF-α production, A2AR intact monocytes, absence of ADA, 100 μM, 4 h) was 30.1 ± 1.3% and the inhibition at 30 µM ([1]; read-out: inhibition of LPS-stimulated TNF-α production, A2AR intact monocytes, presence of ADA 3 U/ml, 30 μM, 4 h) was 13.2 ± 1.9%. For the same compound, the inhibition at 100 µM ([1]; read-out: inhibition of LPS-stimulated TNF-α production, A2AR intact monocytes, presence of ADA 3 U/ml, 100 μM, 4 h) was 16.8 ± 1.6% and the “inhibition of CCL4 production” value [6] was “individually inhibited CCL4 production”.

With `O=[N+]([O-])c1ccc(CSc2ncnc3c2ncn3[C@@H]2O[C@H](CO)[C@@H](O)[C@H]2O)cc1` [NBMPR, 6-S-[(4-Nitrophenyl)methyl]-6-thioinosine] the cAMP production ([3]; without ADA) was “activated A2AR-mediated cAMP production” and the cAMP production [7] was “dose-dependently increased cAMP production”.

— PMC5732040 (Cellular signalling, 2017)
